ChEMBL document CHEMBL3739373, “1,2,3-Triazole derivatives as antitubercular agents: synthesis, biological evaluation and molecular docking study” (Medchemcomm, 2015)
≈ marks a conversion by molar mass, not a printed value.

Tests used:
[1] = Antioxidant activity assessed as DPPH radical scavenging activity after 30 mins by spectrophotometric analysis; assay type: physicochemical
[2] = Selectivity index, ratio of GI50 for human THP1 cells to MIC for dormant phase Mycobacterium tuberculosis H37Ra ATCC 25177; assay type: toxicity, cell-based, THP-1; conditions: read-out: Selectivity Index
[3] = Selectivity index, ratio of GI50 for human A549 cells to MIC for dormant phase Mycobacterium tuberculosis H37Ra ATCC 25177; assay type: toxicity, cell-based; conditions: read-out: Selectivity Index
[4] = tested on: Mycobacterium tuberculosis; experiment: Antitubercular activity against dormant phase Mycobacterium tuberculosis H37Ra ATCC 25177 incubated for 12 days by XTT reduction menadione assay; assay type: functional, organism-based; conditions: 288 h
[5] = Cytotoxicity against human PANC1 cells assessed as growth inhibition after 48 hrs by MTT assay; assay type: cell-based, PANC-1; conditions: for GI50 at 48 h: PANC1 cells; for GI90: panc-1, 48 h
[6] = Cytotoxicity against human THP1 cells assessed as growth inhibition after 48 hrs by MTT assay; assay type: cell-based, THP-1; conditions: for GI50 at 48 h: THP1 cells; for GI90: thp-1, 48 h
[7] = Selectivity index, ratio of GI50 for human PANC1 cells to MIC for dormant phase Mycobacterium tuberculosis H37Ra ATCC 25177; assay type: toxicity, cell-based, PANC-1; conditions: read-out: Selectivity Index
[8] = (§1) Cytotoxicity against human A549 cells assessed as growth inhibition after 48 hrs by MTT assay; assay type: cell-based; conditions: A549 cells
A549 = experiment: as §1; assay type: cell-based; conditions: a549, 48 h

Structure (SMILES)	IC50 [1] [µg/mL]	selectivity ratio [2]	selectivity ratio [3]	IC50 [4] [µg/mL]	MIC [4] [µg/mL]	GI50 at 48 h [5] [µg/mL]	GI90 [5] [µg/mL]	GI50 at 48 h [6] [µg/mL]	GI90 [6] [µg/mL]	selectivity ratio [7]	GI50 at 48 h [8] [µg/mL]	GI90 (A549) [µg/mL]
Brc1ccc(Cn2cc(COc3ccccc3)nn2)cc1	18.3 (≈ 53.2 µM)	0.6	> 3.5	3.2 (≈ 9.3 µM)	28.9 (≈ 84 µM)	> 100	> 100	16.2 (≈ 47.1 µM)	68.3 (≈ 198 µM)	> 3.5	> 100	> 100
O=[N+]([O-])c1ccc(Cn2cc(COc3ccc(Cl)cc3)nn2)cc1	24.2 (≈ 70.2 µM)	1.1	> 3.6	3.6 (≈ 10.4 µM)	27.5 (≈ 79.8 µM)	> 100	> 100	31.1 (≈ 90.2 µM)	88.9 (≈ 258 µM)	> 3.6	> 100	> 100
Cc1ccc(OCc2cn(Cc3ccc(Cl)cc3)nn2)cc1	17.3 (≈ 55.1 µM)	3.1	> 4.1	2.5 (≈ 7.97 µM)	24.2 (≈ 77.1 µM)	> 100	> 100	74.1 (≈ 236 µM)	> 100	> 4.1	> 100	> 100
O=[N+]([O-])c1cccc(Cn2cc(COc3cccc([N+](=O)[O-])c3)nn2)c1	19.1 (≈ 53.8 µM)			8.3 (≈ 23.4 µM)	> 30							
O=[N+]([O-])c1ccc(Cn2cc(COc3c(Cl)cc(Cl)cc3Cl)nn2)cc1	28.9 (≈ 69.9 µM)			2.2 (≈ 5.32 µM)	> 30							
O=[N+]([O-])c1cccc(Cn2cc(COc3ccc(Cl)cc3)nn2)c1	21.3 (≈ 61.8 µM)	1.2	> 3.4	2.6 (≈ 7.54 µM)	29.2 (≈ 84.7 µM)	> 100	> 100	34.9 (≈ 101 µM)	97.6 (≈ 283 µM)	> 3.4	> 100	> 100
Clc1ccc(OCc2cn(Cc3ccc(Br)cc3)nn2)cc1	11 (≈ 29.1 µM)	9.2	> 17.3	0.5 (≈ 1.32 µM)	5.8 (≈ 15.3 µM)	> 100	> 100	52.9 (≈ 140 µM)	> 100	> 17.3	> 100	> 100
O=[N+]([O-])c1cccc(OCc2cn(Cc3ccc(Cl)cc3)nn2)c1	37.3 (≈ 108 µM)			53.4 (≈ 155 µM)	> 100							
O=[N+]([O-])c1ccc(OCc2cn(Cc3ccc(Br)cc3)nn2)c(I)c1	18.5 (≈ 35.9 µM)			25 (≈ 48.5 µM)	> 30							
Clc1ccc(Cn2cc(COc3ccccc3)nn2)cc1	26.1 (≈ 87.1 µM)	1.2	> 3.3	3.5 (≈ 11.7 µM)	29.9 (≈ 99.7 µM)	> 100	> 100	36.4 (≈ 121 µM)	> 100	> 3.3	> 100	> 100
O=[N+]([O-])c1ccc(Cn2cc(COc3cccc([N+](=O)[O-])c3)nn2)cc1	17.1 (≈ 48.1 µM)			> 100	> 100							
Cc1ccc(OCc2cn(Cc3cccc([N+](=O)[O-])c3)nn2)cc1	12.1 (≈ 37.3 µM)			2.4 (≈ 7.4 µM)	> 30							
O=[N+]([O-])c1cccc(OCc2cn(Cc3ccc(Br)cc3)nn2)c1	29.4 (≈ 75.5 µM)			43.2 (≈ 111 µM)	> 100							
O=C1O[C@H]([C@@H](O)CO)C(O)=C1O [ASCORBIC ACID]	12.7 (≈ 72.1 µM)											
Cc1cc(C(C)(C)C)c(O)c(C(C)(C)C)c1 [BUTYLATED HYDROXYTOLUENE]	16.5 (≈ 74.9 µM)											
CC(=O)O[C@H]1C(=O)[C@@]2(C)[C@H]([C@H](OC(=O)c3ccccc3)[C@]3(O)C[C@H](OC(=O)[C@H](O)[C@@H](NC(=O)c4ccccc4)c4ccccc4)C(C)=C1C3(C)C)[C@]1(OC(C)=O)CO[C@@H]1C[C@@H]2O [PACLITAXEL]		> 2330	> 2330			0.004 (≈ 0.00468 µM)	0.07 (≈ 0.082 µM)	0.14 (≈ 0.164 µM)	5.82 (≈ 6.82 µM)	> 2330	0.13 (≈ 0.152 µM)	5.72 (≈ 6.7 µM)
CO[C@H]1/C=C/O[C@@]2(C)Oc3c(C)c(O)c4c(O)c(c(/C=N/N5CCN(C)CC5)c(O)c4c3C2=O)NC(=O)/C(C)=C\C=C\[C@H](C)[C@H](O)[C@@H](C)[C@@H](O)[C@@H](C)[C@H](OC(C)=O)[C@@H]1C [RIFAMPIN]				0.002 (≈ 0.00243 µM)	0.04 (≈ 0.0486 µM)							
